In US20030144360A1, “Composition and method for modulating BAR/FXR receptor activity” (Allergan Sales, Inc., priority 2001, published 2003):
Values joined by “and” are separate entries in the source; they are usually repeats but may differ in a detail not shown here. Identical values can stand only once.

Tests used:
BAR:RXR heterodimer = molecular target: T1, BAR:RXR heterodimer (Homo sapiens, UniProt P19793+Q96RI1); assay: Mammalian two hybrid assay detecting recruitment of CoA; type: cell-based
T1 construct: expressed in transfected cells
T1 sequence (Q96RI1 1-486): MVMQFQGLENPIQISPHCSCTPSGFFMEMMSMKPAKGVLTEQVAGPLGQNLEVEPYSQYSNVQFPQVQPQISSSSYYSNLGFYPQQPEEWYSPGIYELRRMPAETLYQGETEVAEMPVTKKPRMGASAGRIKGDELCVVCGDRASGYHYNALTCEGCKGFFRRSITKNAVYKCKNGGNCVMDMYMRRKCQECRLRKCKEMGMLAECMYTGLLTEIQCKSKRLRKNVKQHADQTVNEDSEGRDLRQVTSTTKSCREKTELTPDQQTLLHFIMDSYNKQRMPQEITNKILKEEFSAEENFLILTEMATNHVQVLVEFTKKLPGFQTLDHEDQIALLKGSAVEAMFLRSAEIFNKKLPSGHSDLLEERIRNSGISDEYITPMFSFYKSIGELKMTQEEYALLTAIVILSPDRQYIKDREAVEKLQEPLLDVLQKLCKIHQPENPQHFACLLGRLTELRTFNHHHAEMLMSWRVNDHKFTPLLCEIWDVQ
T1 sequence (P19793 1-462): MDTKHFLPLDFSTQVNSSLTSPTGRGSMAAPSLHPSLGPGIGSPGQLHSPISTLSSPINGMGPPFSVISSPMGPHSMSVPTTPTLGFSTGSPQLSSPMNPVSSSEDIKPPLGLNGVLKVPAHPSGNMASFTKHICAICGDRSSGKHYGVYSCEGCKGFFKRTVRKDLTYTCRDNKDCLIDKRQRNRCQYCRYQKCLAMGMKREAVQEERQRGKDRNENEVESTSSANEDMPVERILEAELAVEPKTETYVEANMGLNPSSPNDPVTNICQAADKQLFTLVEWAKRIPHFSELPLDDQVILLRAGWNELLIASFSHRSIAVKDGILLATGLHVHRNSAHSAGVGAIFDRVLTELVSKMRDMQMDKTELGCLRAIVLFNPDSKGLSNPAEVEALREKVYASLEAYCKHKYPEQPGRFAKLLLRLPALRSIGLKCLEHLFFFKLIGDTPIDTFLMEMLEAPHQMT

RFXRop / HRXRop = molecular target: T2, RFXRop / HRXRop (UniProt P19793+Q62735); assay: Co-transfection luciferase assay, EcRE × 6 reporter, RFXRop + HRXRop;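 note: CV-1 monkey cells transiently transfected with receptor expression vectors, reporter construct and β-galactosidase internal control, exposed to compound about 40 h, then luciferase chemiluminescence read by luminometer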
T2 sequence (Q62735 1-469): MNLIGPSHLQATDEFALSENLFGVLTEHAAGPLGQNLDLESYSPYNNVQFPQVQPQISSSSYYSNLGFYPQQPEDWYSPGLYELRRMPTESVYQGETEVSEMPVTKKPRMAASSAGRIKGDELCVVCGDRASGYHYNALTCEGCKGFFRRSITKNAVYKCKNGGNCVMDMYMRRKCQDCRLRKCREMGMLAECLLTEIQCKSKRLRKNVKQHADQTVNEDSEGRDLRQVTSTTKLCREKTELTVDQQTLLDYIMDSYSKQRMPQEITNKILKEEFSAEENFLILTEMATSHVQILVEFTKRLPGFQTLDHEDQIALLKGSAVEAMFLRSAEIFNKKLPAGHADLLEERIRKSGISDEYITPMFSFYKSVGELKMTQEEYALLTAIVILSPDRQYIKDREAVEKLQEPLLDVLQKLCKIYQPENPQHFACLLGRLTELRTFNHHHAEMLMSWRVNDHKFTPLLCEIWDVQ
T2 sequence (P19793 1-462): T1 sequence (P19793 1-462)
Method: (§1) CV-1 African Green Monkey cells were grown in Dulbecco's Modified Eagle's medium supplemented with 10% resin-charcoal stripped fetal bovine serum (FBS), 50 U/ml penicillin G and 50 μg/ml streptomycin sulfate (DMEM-FBS) at 37° C. in 5% CO2. One day prior to transfection, cells were plated to 50-80% confluence using phenol red-free DMEM-FBS. Cells were transiently transfected by lipofection as described in Forman et al., 81 Cell 687 (1995). Liposomes (N-[1-(2,3-dioleoyloxy)propyl]-N,N,N-ammonium methyl sulfate, sold by Boehringer Mannheim under the name DOTAP) were formed according to the manufacturer's instructions. The liposomes contained reporter gene constructs (300 ng/10^5 cells); cytomegalovirus driven expression vectors (25 ng/10^5 cells) were added as indicated along with CMX-Bgal (500 ng/10^5 cells) as an internal control. After 2 hours the liposomes were removed and replaced with fresh media. Cells were incubated for approximately 40 hours with phenol red-free DMEM-FBS containing the indicated compounds. After exposure to the specified ligand, the cells were harvested.
(§2) The harvested cells were assayed for the presence of luciferase activity. Cells were lysed in 0.1 M KPO4 (pH 7.8), 1.0% TRITON® X-100, 1.0 mM dithiolthreitol (DTT) and 2 mM ethylenediamine tetracetic acid (EDTA). Luciferase activity was measured by reaction of the cell lysates with luciferin in a reaction buffer comprising: 20 mM tricine, 1.07 mM Mg(CO3)4-Mg(OH)2-5H2O, 2.67 mM MgSO4.7H2O, 0.1 mM EDTA, 0.5 mM Sodium luciferin, 0.15 mg/ml Coenzyme A, 5 mM DTT, and 0.5 mM adenosine triphosphate (ATP). Resulting chemiluminescence was measured in a luminometer. […] All points were assayed in triplicate and varied by less than 15%. Each experiment was repeated three or more times with similar results.
(§3) As shown below, in most cases hRXRop was recombinantly coexpressed with one other of the indicated receptor constructs, so as to permit the formation of hetero-or homodimers containing hRXRop.
(§4) Expression of the luciferase reporter gene product was detected and quantified as described above.

[1] = system: human AR, mouse PXR, human PXR, ERα, human LXRα, mouse PPARα, mouse PPARγ, mouse PPARδ, human VDR, human TRB, mouse CARβ; assay: Repression of cognate ligand-induced activity of other nuclear receptor/RXR heterodimers (luciferase reporter); type: cell-based; conditions: 1 mM AGN 34 with cognate ligand
Method: Resulting chemiluminescence was measured in a luminometer.
Various other nuclear receptor/RXR heterodimers were incubated with the cognate ligand of the non-RXR component of the heterodimer. These were: human AR (androgen receptor), mouse PXR (10 μM pregnenolone-16-carbonitrile), human PXR (10 μM rifampicin), ERα (100 nM 17β-estradiol), human LXRα (30 μM hyodeoxycholic acid methyl ester), mouse PPARα (5 μM Wy 14,643), mouse PPARγ (1 μM rosiglitazone), mouse PPARδ (1 μM carbaprostacyclin), human VDR (100 nM 1,25-dihydroxyvitamin D3) and human TRB (100 nM triiodothyronine). No ligand was added to mouse CARβ which is constitutively active. Each compound was incubated in the presence or absence of 1 mM AGN 34, then assayed for luciferase reporter activity.

HFXR / HRXRop = molecular target: T3, HFXR / HRXRop (Homo sapiens, UniProt P19793+Q96RI1); assay: Co-transfection luciferase assay, EcRE × 6 reporter, HFXR + HRXRop;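 note: CV-1 monkey cells transfected with receptor vectors, luciferase reporter and β-galactosidase internal control, exposed to compounds about 40 h, then lysed and luminescence read in a luminometer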
T3 sequence (Q96RI1 1-486): T1 sequence (Q96RI1 1-486)
T3 sequence (P19793 1-462): T1 sequence (P19793 1-462)
Method: as §1, §2, §3, §4

CCCCCCOc1c(\C(C)=C/C=C/C(C)=C/C(=O)O)cc(C(C)C)cc1C(C)C [AGN 34, (2E, 4E, 6Z)-7-(2-Hexyloxy-3,5-diisopropylphenyl)-3-methylocta-2,4,6-trienoic Acid]
recruitment of CoA (BAR:RXR heterodimer): inhibits recruitment
Fold Activation (RFXRop / HRXRop; 0.1 μM LG268 + 0.01 μM AGN 34): 18.59 fold
Reporter Activity (RFXRop / HRXRop; 0.1 μM LG268 + 0.01 μM AGN 34): 5.24
Fold Activation (RFXRop / HRXRop; 0.1 μM LG268 + 0.1 μM AGN 34): 1.55 fold
Reporter Activity (RFXRop / HRXRop; 0.1 μM LG268 + 0.1 μM AGN 34): 0.44
Fold Activation (RFXRop / HRXRop; 0.1 μM LG268 + 1 μM AGN 34): 0.88 fold
Reporter Activity (RFXRop / HRXRop; 0.1 μM LG268 + 1 μM AGN 34): 0.25
Fold Activation (RFXRop / HRXRop; 0.1 μM LG268 + 3 μM AGN 34): 0.92 fold
Reporter Activity (RFXRop / HRXRop; 0.1 μM LG268 + 3 μM AGN 34): 0.26
Fold Activation (RFXRop / HRXRop; 0.1 μM LG268 + 10 μM AGN 34): 0.90 fold
Reporter Activity (RFXRop / HRXRop; 0.1 μM LG268 + 10 μM AGN 34): 0.25
Fold Activation (RFXRop / HRXRop; 10 μM AGN 34 alone): 0.84 fold and 1.02 fold
Reporter Activity (RFXRop / HRXRop; 10 μM AGN 34 alone): 0.27 and 0.29
Fold Activation (RFXRop / HRXRop; 50 μM CDCA + 0.01 μM AGN 34): 9.03 fold
Reporter Activity (RFXRop / HRXRop; 50 μM CDCA + 0.01 μM AGN 34): 2.92
Fold Activation (RFXRop / HRXRop; 50 μM CDCA + 0.1 μM AGN 34): 6.32 fold
Reporter Activity (RFXRop / HRXRop; 50 μM CDCA + 0.1 μM AGN 34): 2.05
Fold Activation (RFXRop / HRXRop; 50 μM CDCA + 1 μM AGN 34): 3.94 fold and 4.99 fold
Reporter Activity (RFXRop / HRXRop; 50 μM CDCA + 1 μM AGN 34): 1.28
Fold Activation (RFXRop / HRXRop; 50 μM CDCA + 3 μM AGN 34): 3.04 fold
Reporter Activity (RFXRop / HRXRop; 50 μM CDCA + 3 μM AGN 34): 0.98
Fold Activation (RFXRop / HRXRop; 50 μM CDCA + 10 μM AGN 34): 3.94 fold
Reporter Activity (RFXRop / HRXRop; 50 μM CDCA + 10 μM AGN 34): 1.28
repression of specific ligand-induced activity of other nuclear receptors [1]: unable to repress
Fold Activation (HFXR / HRXRop; 0.1 μM LG268 + 0.01 μM AGN 34): 2.36 fold
Reporter Activity (HFXR / HRXRop; 0.1 μM LG268 + 0.01 μM AGN 34): 0.76
Fold Activation (HFXR / HRXRop; 0.1 μM LG268 + 0.1 μM AGN 34): 1.45 fold
Reporter Activity (HFXR / HRXRop; 0.1 μM LG268 + 0.1 μM AGN 34): 0.47
Fold Activation (HFXR / HRXRop; 0.1 μM LG268 + 1 μM AGN 34): 1.23 fold
Reporter Activity (HFXR / HRXRop; 0.1 μM LG268 + 1 μM AGN 34): 0.40
Fold Activation (HFXR / HRXRop; 0.1 μM LG268 + 3 μM AGN 34): 1.26 fold
Reporter Activity (HFXR / HRXRop; 0.1 μM LG268 + 3 μM AGN 34): 0.41
Fold Activation (HFXR / HRXRop; 0.1 μM LG268 + 10 μM AGN 34): 1.22 fold
Reporter Activity (HFXR / HRXRop; 0.1 μM LG268 + 10 μM AGN 34): 0.39
Fold Activation (HFXR / HRXRop; 10 μM AGN 34 alone): 1.21 fold and 1.35 fold
Reporter Activity (HFXR / HRXRop; 10 μM AGN 34 alone): 0.41 and 0.44
Fold Activation (HFXR / HRXRop; 50 μM CDCA + 0.01 μM AGN 34): 15.00 fold
Reporter Activity (HFXR / HRXRop; 50 μM CDCA + 0.01 μM AGN 34): 5.14
Fold Activation (HFXR / HRXRop; 50 μM CDCA + 0.1 μM AGN 34): 11.73 fold
Reporter Activity (HFXR / HRXRop; 50 μM CDCA + 0.1 μM AGN 34): 4.02
Fold Activation (HFXR / HRXRop; 50 μM CDCA + 1 μM AGN 34): 7.08 fold and 5.51 fold
Reporter Activity (HFXR / HRXRop; 50 μM CDCA + 1 μM AGN 34): 2.42
Fold Activation (HFXR / HRXRop; 50 μM CDCA + 3 μM AGN 34): 5.78 fold
Reporter Activity (HFXR / HRXRop; 50 μM CDCA + 3 μM AGN 34): 1.98
Fold Activation (HFXR / HRXRop; 50 μM CDCA + 10 μM AGN 34): 6.58 fold
Reporter Activity (HFXR / HRXRop; 50 μM CDCA + 10 μM AGN 34): 2.25
